These results are taken from patent publication US6797721B2, “Phorboxazole derivatives for treating cancer” (Parker Hughes Institute, priority 1999, dated 2004).

Where only a bound is given, the exact number is not on record here.

Type in all cases: cell-based
In test [1] the test system is NALM-6 human B-lineage acute lymphoblastic leukemia cells. The experiment in a line: MTT cytotoxicity assay, NALM-6. Particulars: NALM-6 (leukemia, ALL), 24-36 hours, read-out: IC50 [MTT]. The protocol:
(§1) The cytotoxicity assay of synthetic Phorboxazole A and various derivative compounds against human tumor cells was performed using the MTT (3-[4,5-dimethylthiazol-2-yl]-2,5-diphenyl tetrazolium bromide) assay (Boehringer Mannheim Corp., Indianapolis, Ind.). Briefly, exponentially growing brain tumor cells were seeded into a 96-well plate at a density of 2.5×10^4 cells/well and incubated for 36 hours at 37° C. prior to drug exposure. On the day of treatment, culture medium was carefully aspirated from the wells and replaced with fresh medium containing the various phorboxazole A derivative compounds as well as the tyrosine kinase inhibitory isoflavone genistein (GEN) at concentrations ranging from 0.1 to 250 μM. Triplicate wells were used for each treatment.
(§2) Human glioblastoma cells U373 (brain cancer), human B-lineage acute lymphoblastic leukemia cells NALM-6, and human breast cancer cells BT-20 were obtained from American Type Culture Collection (Rockville, Md.) and maintained as a continuous cell line in Dulbecco's modified Eagles's medium supplemented with 10% fetal bovine serum and antibiotics.
(§3) The cells were incubated with the various compounds for 24-36 hours at 37° C. in a humidified 5% CO2 atmosphere. To each well, 10 μl of MTT (0.5 mg/ml final concentration) was added and the plates were incubated at 37° C. for 4 hours to allow MTT to form formazan crystals by reacting with metabolically active cells. The fonnazan crystals were solubilized overnight at 37° C. in a solution containing 10% SDS in 0.01 M HCl. The absorbance of each well was measured in a microplate reader (Labsystems) at 540 nm and a reference wavelength of 690 nm. To translate the OD540 values into the number of live cells in each well, the OD540 values were compared to those on standard OD540-versus-cell number curves generated for each cell line. The percent survival was calculated using the formula: [formula]
(§4) The IC50 values were calculated by non-linear regression analysis.

The test system of test [2] is U373 human glioblastoma cells. The test can be described thus: MTT cytotoxicity assay, U373. To be noted: U373 MG, U373 (brain tumor, glioblastoma), 24-36 hours, read-out: IC50 [MTT]. How it is done:
as §1, §2, §3, §4
On the technique in general: Tetrazolium assays rely on reduction of a dye to a coloured formazan, in cell work by metabolically active cells.

For another test, the system named is PC3 (prostate cancer). The experiment in a line: MTT cytotoxicity assay, PC3. To be noted: Homo sapiens.
The subject of a further test is DU-145 (prostate cancer). The test can be described thus: MTT cytotoxicity assay, DU-145. To be noted: Homo sapiens. The protocol:
as §1
The cells were incubated with the various compounds for 24-36 hours at 37° C. in a humidified 5% CO2 atmosphere. To each well, 10 μl of MTT (0.5 mg/ml final concentration) was added and the plates were incubated at 37° C. for 4 hours to allow MTT to form formazan crystals by reacting with metabolically active cells. […] The absorbance of each well was measured in a microplate reader (Labsystems) at 540 nm and a reference wavelength of 690 nm. […] The percent survival was calculated using the formula: [formula]
The IC50 values were calculated by non-linear regression analysis. […]

For a further test, the system named is ARH77 (multiple myeloma). The test can be described thus: MTT cytotoxicity assay, ARH77. Particulars: Homo sapiens, ARH-77.
Test [3] relates to HS-SULTAN (multiple myeloma). The test can be described thus: MTT cytotoxicity assay, HS-SULTAN. To be noted: Homo sapiens.
The subject of test [4] is BT-20 human breast cancer cells. The test can be described thus: Clonogenic assay, BT-20. Particulars: 7 days. How it is done:
(§5) The growth-inhibiting activity of the synthetic Phorboxazole A and the synthesized derivatives was tested in clonogenic assays. Cancer cells were treated with 1 nM, 10 nM, and 100 nM doses of synthetic Phorboxazole A or derivatives of phorboxazole A. Treated cells included U373 human glioblastoma cells, NALM-6, human B-lineage acute lymphoblastic leukemia cells, and BT-20 human breast cancer cells. The cancer cells were resuspended in clonogenic medium consisting of alpha-MEM supplemented with 0.9% methylcellulose, 30% fetal bovine serum, and 50 μM 2-mercaptoethanol. Cells were plated in duplicate Petri dishes at 100,000 cells/mL/dish and cultured in a humidified 5% CO2 incubator for 7 days. Cancer cell colonies were enumerated on a grid using an inverted phase microscope of high optical resolution. Results were expressed as % inhibition of clonogenic cells at a particular concentration of the test agent using the formula:
(§6) % Inhibition=(1−Mean # of colonies [Test]/Mean # of colonies [Control]×100.

For test [5], the system named is U373 human glioblastoma cells. The test can be described thus: Clonogenic assay, U373. Particulars: 7 days. The protocol:
as §5, §6

For test [6], the system named is human breast cancer cell line BT-20. The test can be described thus: In situ detection of apoptosis (nick-end-labeling, confocal microscopy). To be noted: final concentration of 100 μM, 24 hours. How it is done: The synthetic Phorboxazole A and the synthetic analogs were also assayed for apoptosis-inducing activity. Assay for apoptosis was performed by the in situ nick-end-labeling method using an ApopTag in situ detection kit (Oncor, Gaithersburg, Md.) according to the manufacturer's reconmmendations. Immunofluorescence was used to examine the morphologic features of human breast cancer cell line BT-20 (American Type Culture Collection Rockville, Md.) treated with the novel phorboxazole A derivatives of the present invention.
Cells were trypsinized from rapidly growing tissue culture flasks and seeded onto sterile 22 mm^2 coverslips in 6-well culture plates. Cells on coverslips were returned to the incubator for 24 hours prior to treatment. The phorboxazole A derivatives were added to the cells from a stock solution made in DMSO to a final concentration of 100 μM. Final DMSO concentration were kept at 0.1% in both test samples and controls. Cells were returned to a 37° C. incubation for 24 hours before further processing. At 24 hours, coverslips were fixed in −20° C. methanol for 15 minutes followed by a 15 minute incubation in phosphate buffered saline +0.1% Triton X-100 (PBS-Tx). Coverslips were then incubated with a monoclonal antibody against α-tubulin (Sigma Chemical Co., St. Louis, Mo.) at a dilution of 1:1000 for 40 minutes in a humidified chamber at 37° C. Coverslips were washed for 15 minutes in PBS-Tx followed by a 40 minute incubation with goat anti-mouse IgG antibody conjugated to FITC (Amersham Corp., Arlington Heights, Ill.). The coverslips were again rinsed in PBS-Tx and incubated with 5 μM TOTO-3 (Molecular Probes, Eugene, Oreg.) for 20 minutes to label the nuclear DNA. Coverslips were immediately inverted onto slides in Vectashield (Vector Labs, Burlingame) to prevent photobleaching, sealed with nail varnish and stored at 4° C.
Slides were examined using a Bio-Rad MRC-1024 Laser Scanning Confocal Microscope mounted on a Nikon Eclipse E800 upright microscope with high numerical aperture objectives. […]

For orientation: IC50 means the concentration at which inhibition is half-maximal. In general, inhibition refers to the change of the read-out against control, counted positive when it falls. For the compound `C=C1C[C@@H]2C[C@@H]3C[C@@H](O)C[C@@H](O3)c3coc(n3)/C=C/C[C@H]3O[C@@H](/C(C)=C/c4coc(C[C@]5(O)C[C@H](OC)C[C@H]([C@H](O)/C=C(C)/C=C/[C@@H](C/C=C/Br)OC)O5)n4)[C@H](C)[C@@H](OC(=O)/C=C\C[C@@H](C1)O2)[C@H]3C` [Compound 1, Phorboxazole A], the IC50 in [1] turned out to be 1.7 nM; in test [2] it was 6.7 nM; with PC3 (prostate cancer), 14.2 nM; in the test on DU-145 (prostate cancer), 15 nM; in the test with ARH77 (multiple myeloma) it was 7.5 nM; in test [3], 29.8 nM. For the same compound, the “Mean Number Colonies/10^4 cells” value in [4] (1 nM) came out at 1070; in [4] (10 nM), 0; in test [4] (100 nM), 0; in test [5] (10 nM), 378; in test [5] (100 nM), 0. In addition, the inhibition at 0.001 µM in [4] (Homo sapiens, 168 h, 1 nM, read-out: Inhibition of clonogenic growth) came to 29.8%. In addition, the inhibition at 0.01 µM was > 99.9% in [4] (Homo sapiens, 168 h, 10 nM, read-out: Inhibition of clonogenic growth) and 42.4% in test [5] (Homo sapiens, U373 MG, 168 h, 10 nM, read-out: Inhibition of clonogenic growth). The inhibition at 0.1 µM in test [4] (Homo sapiens, 168 h, 100 nM, read-out: Inhibition of clonogenic growth) is > 99.9%; in test [5] (Homo sapiens, U373 MG, 168 h, 100 nM, read-out: Inhibition of clonogenic growth), > 99.9%. The Apoptosis-inducing activity result in test [6] is reported as “apoptotic activity”.
